This note sets out measurements from patent US8987216B2, “Polysulfated glycosides and salts thereof” (Teva Hungary Pharmaceutical Marketing Private Limited …, priority 2004, dated 2015).

Counter-ions that a name gives are not always drawn. Like-named read-outs stand apart in the source and are kept apart here.

One series deals with T1, IP-3 receptor (Rattus norvegicus, UniProt P29994).
T1 construct: determined using rat cerebellum membrane preparations; from tissue; host or cells: rat cerebellum (microsomal membrane preparation)
T1 sequence (P29994 whole entry): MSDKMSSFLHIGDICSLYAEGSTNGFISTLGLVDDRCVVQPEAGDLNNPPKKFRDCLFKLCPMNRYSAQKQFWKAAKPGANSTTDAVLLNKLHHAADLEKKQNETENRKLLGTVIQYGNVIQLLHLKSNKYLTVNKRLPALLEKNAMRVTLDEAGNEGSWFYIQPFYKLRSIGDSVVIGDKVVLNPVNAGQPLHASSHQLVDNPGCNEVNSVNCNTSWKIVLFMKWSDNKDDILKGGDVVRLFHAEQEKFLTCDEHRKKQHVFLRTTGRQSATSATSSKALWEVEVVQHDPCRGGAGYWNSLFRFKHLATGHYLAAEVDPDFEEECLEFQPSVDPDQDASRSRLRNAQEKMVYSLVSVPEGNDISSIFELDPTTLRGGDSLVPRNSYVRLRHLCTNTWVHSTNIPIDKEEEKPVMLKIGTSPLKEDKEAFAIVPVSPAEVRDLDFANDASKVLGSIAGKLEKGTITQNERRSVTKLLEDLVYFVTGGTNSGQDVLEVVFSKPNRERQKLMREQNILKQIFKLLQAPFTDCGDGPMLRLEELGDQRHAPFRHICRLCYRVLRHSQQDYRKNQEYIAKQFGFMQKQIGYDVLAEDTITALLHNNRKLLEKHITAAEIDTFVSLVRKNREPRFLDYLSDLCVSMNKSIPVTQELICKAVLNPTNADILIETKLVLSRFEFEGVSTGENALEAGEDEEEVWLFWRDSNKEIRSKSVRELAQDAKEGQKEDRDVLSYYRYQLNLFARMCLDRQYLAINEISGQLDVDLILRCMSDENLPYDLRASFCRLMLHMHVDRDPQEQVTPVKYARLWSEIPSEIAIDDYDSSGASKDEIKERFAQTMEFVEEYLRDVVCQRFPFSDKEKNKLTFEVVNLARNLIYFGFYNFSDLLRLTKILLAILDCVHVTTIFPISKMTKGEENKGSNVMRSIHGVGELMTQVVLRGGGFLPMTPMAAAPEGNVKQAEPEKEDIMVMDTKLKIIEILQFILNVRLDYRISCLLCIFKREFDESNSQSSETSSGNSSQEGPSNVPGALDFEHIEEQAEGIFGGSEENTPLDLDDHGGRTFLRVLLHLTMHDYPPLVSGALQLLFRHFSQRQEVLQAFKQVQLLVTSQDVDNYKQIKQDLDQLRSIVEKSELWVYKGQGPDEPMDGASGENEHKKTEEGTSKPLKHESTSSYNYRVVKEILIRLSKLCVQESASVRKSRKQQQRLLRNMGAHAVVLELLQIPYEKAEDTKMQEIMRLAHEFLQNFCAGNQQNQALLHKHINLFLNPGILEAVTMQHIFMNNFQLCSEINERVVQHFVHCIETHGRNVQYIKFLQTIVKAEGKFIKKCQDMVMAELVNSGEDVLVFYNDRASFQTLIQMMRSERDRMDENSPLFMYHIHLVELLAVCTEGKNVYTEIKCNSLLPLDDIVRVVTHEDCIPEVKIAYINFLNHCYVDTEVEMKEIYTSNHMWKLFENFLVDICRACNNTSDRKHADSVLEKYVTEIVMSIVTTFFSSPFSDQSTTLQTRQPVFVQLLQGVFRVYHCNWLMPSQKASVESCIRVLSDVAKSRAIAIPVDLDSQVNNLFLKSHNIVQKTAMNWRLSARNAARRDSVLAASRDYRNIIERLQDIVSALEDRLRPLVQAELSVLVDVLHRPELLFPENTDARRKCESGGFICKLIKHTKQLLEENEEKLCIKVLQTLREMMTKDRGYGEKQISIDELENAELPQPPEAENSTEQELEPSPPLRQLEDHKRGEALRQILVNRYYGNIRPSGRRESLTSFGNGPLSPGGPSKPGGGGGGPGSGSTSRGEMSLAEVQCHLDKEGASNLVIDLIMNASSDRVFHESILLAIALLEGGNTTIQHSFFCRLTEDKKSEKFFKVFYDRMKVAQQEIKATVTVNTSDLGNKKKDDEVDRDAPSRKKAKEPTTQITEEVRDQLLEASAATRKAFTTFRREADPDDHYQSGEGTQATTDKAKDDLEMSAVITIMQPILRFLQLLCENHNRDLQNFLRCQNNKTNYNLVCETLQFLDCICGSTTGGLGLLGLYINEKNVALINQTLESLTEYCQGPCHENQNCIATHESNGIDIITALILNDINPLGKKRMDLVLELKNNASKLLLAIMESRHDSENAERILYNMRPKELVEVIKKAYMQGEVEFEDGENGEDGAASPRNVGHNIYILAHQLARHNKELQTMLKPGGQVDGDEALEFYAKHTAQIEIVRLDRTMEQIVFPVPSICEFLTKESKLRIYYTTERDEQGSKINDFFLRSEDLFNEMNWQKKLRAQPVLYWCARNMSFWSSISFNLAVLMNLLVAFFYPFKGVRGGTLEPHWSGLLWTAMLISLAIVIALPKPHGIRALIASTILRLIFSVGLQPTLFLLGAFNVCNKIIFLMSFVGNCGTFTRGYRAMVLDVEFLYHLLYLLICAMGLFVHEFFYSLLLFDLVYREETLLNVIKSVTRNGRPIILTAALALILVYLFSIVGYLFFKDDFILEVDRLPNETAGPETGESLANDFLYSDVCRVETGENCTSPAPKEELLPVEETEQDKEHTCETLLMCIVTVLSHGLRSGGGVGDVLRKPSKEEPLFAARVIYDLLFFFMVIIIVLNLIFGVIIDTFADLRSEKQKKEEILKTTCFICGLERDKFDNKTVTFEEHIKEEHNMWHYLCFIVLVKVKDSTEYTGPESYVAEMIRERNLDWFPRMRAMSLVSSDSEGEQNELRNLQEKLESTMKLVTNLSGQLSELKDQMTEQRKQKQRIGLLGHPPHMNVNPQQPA
The series is described as follows: IP-3 receptor antagonistic effect: inhibition of IP3 binding to its receptor in rat cerebellum membrane preparations. The procedure: Glycosides of the present invention, depending on their chemical structure, inhibit the binding of inositol-1,4,5-trisphosphate (IP3) to its receptor in microsomal membrane preparations. As IP3 is a messenger molecule playing distinguished role in the activation of different cells, interfering with this function can explain the anti-asthmatic effect of these polysulfated glycosides.
The IP3 antagonist effect of the polysulfated glycosides were determined using rat cerebellum membrane preparations according to Worley et al. (JBC 262, 12132, 1987).

Setting [1] is: read-out: IC 50 (μg/ml) Average ± SEM (n) (converted).

One may read the melting point as the temperature of the solid-liquid transition.

`O=S(=O)(O)OC[C@H](OS(=O)(=O)O)[C@@H](O[C@@H]1O[C@H](COS(=O)(=O)O)[C@@H](OS(=O)(=O)O)[C@H](OS(=O)(=O)O)[C@H]1OS(=O)(=O)O)[C@H](OS(=O)(=O)O)[C@@H](COS(=O)(=O)O)OS(=O)(=O)O` (as salt: potassium) [Example 4, 1,2,4,5,6-penta-O-sulfato-3-O-(2,3,4,6-tetra-β-sulfato-β-D-glucopyranosyl)-D-glucitol nona potassium salt] displayed a melting point greater than 220 °C.
Regarding `O=S(=O)(O)OC[C@H](OS(=O)(=O)O)[C@@H](OS(=O)(=O)O)[C@H](O[C@H]1O[C@H](COS(=O)(=O)O)[C@@H](OS(=O)(=O)O)[C@H](OS(=O)(=O)O)[C@H]1OS(=O)(=O)O)[C@@H](COS(=O)(=O)O)OS(=O)(=O)O` (as salt: potassium) [Example 5, 1,2,3,5,6-penta-O-sulfato-4-O-(2,3,4,6-tetra-O-sulfato-α-D-glucopyranosyl)-D-glucitol nona potassium salt], the melting point was greater than 220 °C.
On the same count and under the same terms, as for `O=S(=O)(O)OCC(OS(=O)(=O)O)C(OC1OC(COS(=O)(=O)O)C(OS(=O)(=O)O)C(OS(=O)(=O)O)C1OS(=O)(=O)O)C(OS(=O)(=O)O)C(COS(=O)(=O)O)OS(=O)(=O)O` (as salt: potassium) [Example 6, 1,2,3,5,6-penta-O-sulfato-4-O-(2,3,4,6-tetra-β-sulfato-β-D-glucopyranosyl)-D-glucitol nona potassium salt], the figure is greater than 220 °C.
The molecule `O=S(=O)(O)OC[C@H](OS(=O)(=O)O)[C@@H](OS(=O)(=O)O)[C@H](O[C@@H]1O[C@H](COS(=O)(=O)O)[C@H](OS(=O)(=O)O)[C@H](OS(=O)(=O)O)[C@H]1OS(=O)(=O)O)[C@@H](COS(=O)(=O)O)OS(=O)(=O)O` (as salt: potassium) [Example 7, 1,2,3,5,6-penta-O-sulfato-4-O-(2,3,4,6-tetra-O-sulfato-β-D-galactopyranosyl)-D-glucitol nona potassium salt] gave a melting point greater than 220 °C.
For the molecule `O=S(=O)(O)OC[C@H]1O[C@@H](OC[C@@H](OS(=O)(=O)O)[C@@H](OS(=O)(=O)O)[C@H](OS(=O)(=O)O)[C@@H](COS(=O)(=O)O)OS(=O)(=O)O)[C@H](OS(=O)(=O)O)[C@@H](OS(=O)(=O)O)[C@@H]1OS(=O)(=O)O` [Example 1, 2,3,4,5,6-penta-O-sulfato-1-O-(2,3,4,6-tetra-O-sulfato-β-D-glucopyranosyl)-D-mannitol nona potassium salt], the IC50 is 100 nM at IP-3 receptor (read-out: Average IC50) and 131 nM on IP-3 receptor (setting [1]).
In the case of `O=S(=O)(O)OC[C@H](OS(=O)(=O)O)[C@@H](OS(=O)(=O)O)[C@H](OS(=O)(=O)O)[C@@H](CO[C@@H]1O[C@H](COS(=O)(=O)O)[C@@H](OS(=O)(=O)O)[C@H](OS(=O)(=O)O)[C@H]1OS(=O)(=O)O)OS(=O)(=O)O` [Example 2, 1,2,3,4,5-penta-O-sulfato-6-O-(2,3,4,6-tetra-O-sulfato-β-D-glucopyranosyl)-D-glucitol nona potassium salt], the IC50 was 1410 nM at IP-3 receptor (read-out: Average IC50) and 1870 nM at IP-3 receptor (setting [1]).
For `O=S(=O)(O)OC[C@H]1O[C@@H](OC[C@H](OS(=O)(=O)O)[C@@H](OS(=O)(=O)O)[C@H](OS(=O)(=O)O)[C@@H](COS(=O)(=O)O)OS(=O)(=O)O)[C@H](OS(=O)(=O)O)[C@@H](OS(=O)(=O)O)[C@@H]1OS(=O)(=O)O` [Example 3, 2,3,4,5,6-penta-O-sulfato-1-O-(2,3,4,6-tetra-O-sulfato-β-D-glucopyranosyl)-D-glucitol nona potassium salt] the same measures were 405 nM and 535 nM.
With `O=S(=O)(O)OC[C@H](OS(=O)(=O)O)[C@@H](OS(=O)(=O)O)[C@H](O[C@H]1O[C@H](COS(=O)(=O)O)[C@@H](OS(=O)(=O)O)[C@H](OS(=O)(=O)O)[C@H]1OS(=O)(=O)O)[C@@H](COS(=O)(=O)O)OS(=O)(=O)O` [Example 5, 1,2,3,5,6-penta-O-sulfato-4-O-(2,3,4,6-tetra-O-sulfato-α-D-glucopyranosyl)-D-glucitol nona potassium salt], the IC50 at IP-3 receptor (read-out: Average IC50) is 263 nM; at IP-3 receptor (setting [1]) it was 347 nM.
For `O=S(=O)(O)OCC(OS(=O)(=O)O)C(OC1OC(COS(=O)(=O)O)C(OS(=O)(=O)O)C(OS(=O)(=O)O)C1OS(=O)(=O)O)C(OS(=O)(=O)O)C(COS(=O)(=O)O)OS(=O)(=O)O` [Example 6, 1,2,3,5,6-penta-O-sulfato-4-O-(2,3,4,6-tetra-β-sulfato-β-D-glucopyranosyl)-D-glucitol nona potassium salt] the same measures were 256 nM and 338 nM.
For `O=S(=O)(O)OC[C@H](OS(=O)(=O)O)[C@@H](OS(=O)(=O)O)[C@H](O[C@@H]1O[C@H](COS(=O)(=O)O)[C@H](OS(=O)(=O)O)[C@H](OS(=O)(=O)O)[C@H]1OS(=O)(=O)O)[C@@H](COS(=O)(=O)O)OS(=O)(=O)O` [Example 7, 1,2,3,5,6-penta-O-sulfato-4-O-(2,3,4,6-tetra-O-sulfato-β-D-galactopyranosyl)-D-glucitol nona potassium salt] the same measures were 256 nM and 338 nM.
Taken in the same sequence, the figures for `O=S(=O)(O)OC[C@H]1O[C@@H](OC[C@H](OS(=O)(=O)O)[C@@H](O[C@@H]2O[C@H](COS(=O)(=O)O)[C@@H](OS(=O)(=O)O)[C@H](OS(=O)(=O)O)[C@H]2OS(=O)(=O)O)[C@H](OS(=O)(=O)O)[C@@H](COS(=O)(=O)O)OS(=O)(=O)O)[C@H](OS(=O)(=O)O)[C@@H](OS(=O)(=O)O)[C@@H]1OS(=O)(=O)O` [Example 8, 2,4,5,6-tetra-O-sulfato-1,3-bis-O-(2,3,4,6-tetra-O-sulfato-β-D-glucopyranosyl)-D-glucitol dodeca potassium salt] were 800 nM and 1050 nM.
As to `O=S(=O)(O)OC[C@H]1O[C@@H](OC[C@@H](OS(=O)(=O)O)[C@@H](OS(=O)(=O)O)[C@H](OS(=O)(=O)O)[C@@H](CO[C@@H]2O[C@H](COS(=O)(=O)O)[C@@H](OS(=O)(=O)O)[C@H](OS(=O)(=O)O)[C@H]2OS(=O)(=O)O)OS(=O)(=O)O)[C@H](OS(=O)(=O)O)[C@@H](OS(=O)(=O)O)[C@@H]1OS(=O)(=O)O` [Example 9, 2,3,4,5-tetra-O-sulfato-1,6-bis-O-(2,3,4,6-tetra-O-sulfato-β-D-glucopyranosyl)-D-mannitol dodeca potassium salt], the IC50 was 634 nM at IP-3 receptor (read-out: Average IC50) and 832 nM at IP-3 receptor (setting [1]).
For `O=S(=O)(O)OCC1OC(OCC2OC(OCC(OS(=O)(=O)O)C(OS(=O)(=O)O)C(OS(=O)(=O)O)C(COC3OC(COC4OC(COS(=O)(=O)O)C(OS(=O)(=O)O)C(OS(=O)(=O)O)C4OS(=O)(=O)O)C(OS(=O)(=O)O)C(OS(=O)(=O)O)C3OS(=O)(=O)O)OS(=O)(=O)O)C(OS(=O)(=O)O)C(OS(=O)(=O)O)C2OS(=O)(=O)O)C(OS(=O)(=O)O)C(OS(=O)(=O)O)C1OS(=O)(=O)O` [Example 10, 2,3,4,5-tetra-O-sulfato-1,6-bis-O-(2,3,4,2′,3′,4′,6′-hepta-O-sulfato-β-gentiobiopyranosyl)-D-mannitol octadeca potassium salt] the same measures were 284 nM and 383 nM.
Turning to `CO[C@@H]([C@H](OC)[C@@H](COS(=O)(=O)O)OS(=O)(=O)O)[C@@H](CO[C@@H]1O[C@H](CO[C@@H]2O[C@H](COS(=O)(=O)O)[C@@H](OS(=O)(=O)O)[C@H](OS(=O)(=O)O)[C@H]2OS(=O)(=O)O)[C@@H](OS(=O)(=O)O)[C@H](OS(=O)(=O)O)[C@H]1OS(=O)(=O)O)OS(=O)(=O)O` [Example 14, 3,4-di-O-methyl-2,5,6-tri-O-sulfato-1-O-(2,3,4,2′,3′,4′,6′-hepta-O-sulfato-β-gentiobiopyranosyl)-D-mannitol deca potassium salt], the IC50 on IP-3 receptor (read-out: Average IC50) was 6100 nM; on IP-3 receptor (setting [1]), 7830 nM.
For `O=S(=O)(O)OC[C@@H](OS(=O)(=O)O)[C@@H](OS(=O)(=O)O)[C@H](OS(=O)(=O)O)[C@@H](CO[C@H]1OC[C@@H](OS(=O)(=O)O)[C@@H](OS(=O)(=O)O)[C@@H]1OS(=O)(=O)O)OS(=O)(=O)O` [Example 16, 2,3,4,5,6-penta-O-sulfato-1-O-(2,3,4-tri-O-sulfato-α-D-arabinopyranosyl)-D-mannitol octa potassium salt] the same measures were 702 nM and 2020 nM.
